Laboratory results reported in patent US8906904B2, “Alkoxy pyrazoles as soluble guanylate cyclase activators” (Boehringer Ingelheim International GmbH, priority 2012, dated 2014).

Target: T1, human soluble guanylate cyclase alpha 1 and beta 1 subunits (sGC) (Homo sapiens, UniProt Q02108+Q02153)
T1 construct: expressed in transfected cells; host or cells: Chinese hamster ovary (CHO) cells, stably transfected
T1 sequence (Q02108 1-690): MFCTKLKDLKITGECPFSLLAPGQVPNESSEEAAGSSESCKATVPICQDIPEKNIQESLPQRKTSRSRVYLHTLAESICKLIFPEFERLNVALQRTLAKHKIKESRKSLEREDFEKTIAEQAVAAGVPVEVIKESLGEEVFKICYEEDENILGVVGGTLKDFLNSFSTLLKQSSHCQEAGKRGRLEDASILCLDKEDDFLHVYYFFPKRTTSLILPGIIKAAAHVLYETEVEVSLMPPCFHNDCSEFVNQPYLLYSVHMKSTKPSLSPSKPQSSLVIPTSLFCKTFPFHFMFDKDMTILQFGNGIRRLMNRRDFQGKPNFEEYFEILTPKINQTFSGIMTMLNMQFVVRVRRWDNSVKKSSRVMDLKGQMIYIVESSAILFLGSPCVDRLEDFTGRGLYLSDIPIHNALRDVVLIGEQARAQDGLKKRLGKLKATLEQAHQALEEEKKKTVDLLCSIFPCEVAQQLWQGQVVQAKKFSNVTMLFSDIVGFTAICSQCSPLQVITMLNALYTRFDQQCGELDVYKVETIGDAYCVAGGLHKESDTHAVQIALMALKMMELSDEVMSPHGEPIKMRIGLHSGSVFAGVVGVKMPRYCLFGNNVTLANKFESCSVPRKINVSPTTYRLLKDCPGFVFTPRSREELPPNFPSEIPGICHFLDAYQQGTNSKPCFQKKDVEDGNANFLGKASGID
T1 sequence (Q02153 1-619): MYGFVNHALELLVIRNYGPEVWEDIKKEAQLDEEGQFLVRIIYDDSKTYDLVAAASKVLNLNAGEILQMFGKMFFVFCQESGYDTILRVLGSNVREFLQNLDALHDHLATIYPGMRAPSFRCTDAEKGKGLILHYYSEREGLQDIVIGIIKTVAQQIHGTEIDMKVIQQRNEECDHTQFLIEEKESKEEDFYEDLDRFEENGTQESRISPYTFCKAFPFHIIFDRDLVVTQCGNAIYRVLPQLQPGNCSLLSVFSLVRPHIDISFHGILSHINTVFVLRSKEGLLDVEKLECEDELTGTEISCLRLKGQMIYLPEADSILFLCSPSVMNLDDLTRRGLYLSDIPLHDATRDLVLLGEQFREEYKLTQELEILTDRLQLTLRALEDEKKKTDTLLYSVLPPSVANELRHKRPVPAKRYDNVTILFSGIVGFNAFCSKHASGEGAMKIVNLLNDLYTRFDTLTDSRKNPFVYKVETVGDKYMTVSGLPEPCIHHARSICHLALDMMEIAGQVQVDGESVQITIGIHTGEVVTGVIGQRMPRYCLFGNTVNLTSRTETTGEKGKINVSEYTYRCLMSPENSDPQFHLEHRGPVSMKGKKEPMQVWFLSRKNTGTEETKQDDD
Experiment: sGC cellular activator assay (cGMP, HTRF)
Type: cell-based
Conditions: CHO cells stably expressing human sGC alpha 1/beta 1, preincubated with 40 microM ODQ; cGMP readout; assay run with and without 50% human serum, Table 2 does not say which
Summary of the method: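 First, CHO-sGC (human α1β1) cells get 1 h ODQ at 40 microM with IBMX and 0.1% BSA. Finally, cGMP is quantified by HTRF and EC50 computed.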

| EC50 [nM] | SMILES |
| --- | --- |
| 56 | CCOc1c(C(=O)O)cnn1-c1cccc(-c2cccc(C)c2OCc2ccc3c(c2)CCN(C2CC(C)OC(C)C2)C3)n1 (centres unmarked) [Compound 65] |
| 39 | Cc1cccc(-c2cccc(-n3ncc(C(=O)O)c3OC(C)C)n2)c1OCc1ccc2c(c1)CCN(C1CCOCC1)C2 [Compound 1, 5-isopropoxy-1-(6-{3-methyl-2-[2-(tetrahydro-pyran-4-yl)-1,2,3,4-tetrahydro-isoquinolin-6-ylmethoxy]-phenyl}-pyridin-2-yl)-1H-pyrazole-4-carboxylic acid] |
| 110 | CCOc1c(C(=O)O)cnn1-c1cccc(-c2cccc(C)c2OCc2ccc3c(c2)CCN(C2CCOC(C)(C)C2)C3)n1 (centres unmarked) [Compound 66] |
| 61 | CCOc1c(C(=O)O)cnn1-c1cccc(-c2cccc(C)c2OCc2ccc3c(c2)CCN(CC2CCOCC2)C3)n1 [Compound 69] |
| 71 | CCOc1c(C(=O)O)cnn1-c1cccc(-c2cccc(C)c2OCc2ccc3c(c2)CCN(C2CCOCC2C)C3)n1 (centres unmarked) [Compound 64] |
| 38 | CCOc1c(C(=O)O)cnn1-c1cccc(-c2cccc(C)c2OCc2ccc3c(c2)CCN(CC2CCOC2)C3)n1 (centres unmarked) [Compound 68] |
| 110 | CCOc1c(C(=O)O)cnn1-c1cccc(-c2cccc(Cl)c2OCc2ccc3c(c2)CCN(C2CCOCC2)C3)n1 [Compound 54] |
| 48 | CCOc1c(C(=O)O)cnn1-c1cccc(-c2cccc(C)c2OCc2ccc3c(c2)CCN(C2CCOC(C)C2)C3)n1 (centres unmarked) [Compound 78] |
| 87 | CCOc1c(C(=O)O)cnn1-c1cccc(-c2cccc(C)c2OCc2ccc3c(c2)CCN(C2COC2)C3)n1 [Compound 6] |
| 27 | CCOc1c(C(=O)O)cnn1-c1cccc(-c2cccc(C)c2OCc2ccc3c(c2)CCN(C2CCCOC2)C3)n1 (centres unmarked) [Compound 36] |
| 31 | CCOc1c(C(=O)O)cnn1-c1cccc(-c2cccc(C)c2OCc2ccc3c(c2)CCN(C2CCOCC2)C3)n1 [Compound 77] |
| 45 | CCOc1c(C(=O)O)cnn1-c1cccc(-c2cccc(C)c2OCc2ccc3c(c2)CCN(C2CCOCC2F)C3)n1 (centres unmarked) [Compound 94] |
| 29 | CCOc1c(C(=O)O)cnn1-c1cccc(-c2cccc(C)c2OCc2ccc3c(c2)CCN(C2CCOC2)C3)n1 (centres unmarked) [Compound 35] |
| 110 | CCOc1c(C(=O)O)cnn1-c1cccc(-c2cccc(Cl)c2OCc2ccc3c(c2)CCN(C2CCOC2)C3)n1 (centres unmarked) [Compound 55] |

The next lines start with the compound.

| SMILES | EC50 [nM] |
| --- | --- |
| CCOc1c(C(=O)O)cnn1-c1cccc(-c2cccc(Cl)c2OCc2ccc3c(c2)CCN(C2COC2)C3)n1 [Compound 51] | 72 |
| COc1c(C(=O)O)cnn1-c1cccc(-c2cccc(C(F)(F)F)c2OCc2ccc3c(c2C)CCN(C2CCOCC2)C3)n1 [Compound 84] | 9 |
| COc1c(C(=O)O)cnn1-c1cccc(-c2cccc(C)c2OCc2ccc3c(c2)CCN(C2CCC(F)(F)CC2)C3)n1 [Compound 5] | 9 |
| Cc1cccc(-c2cccc(-n3ncc(C(=O)O)c3OC(C)C)n2)c1OCc1ccc2c(c1C)CCN(C(C)C)C2 [Compound 43] | 130 |
| COc1c(C(=O)O)cnn1-c1cccc(-c2cc(F)cc(F)c2OCc2ccc3c(c2)CCN(C2CCOCC2)C3)n1 [Compound 53] | 110 |
| CCOc1c(C(=O)O)cnn1-c1cccc(-c2cccc(Cl)c2OCc2ccc3c(c2)CCN(CCOC)C3)n1 [Compound 58] | 82 |
| COc1c(C(=O)O)cnn1-c1cccc(-c2cccc(C(F)(F)F)c2OCc2ccc3c(c2C)CCN(C2COC2)C3)n1 [Compound 88] | 28 |
| COc1c(C(=O)O)cnn1-c1cccc(-c2cc(F)cc(F)c2OCc2ccc3c(c2)CCN(C2COC2)C3)n1 [Compound 52] | 170 |
| CCOc1c(C(=O)O)cnn1-c1cccc(-c2cccc(C)c2OCc2ccc3c(c2)CCN(C(C)C)C3)n1 [Compound 32] | 170 |
| COc1c(C(=O)O)cnn1-c1cccc(-c2cccc(C)c2OCc2ccc3c(c2)CCN(C2CC(C)OC(C)C2)C3)n1 (centres unmarked) [Compound 62] | 24 |
| CCOc1c(C(=O)O)cnn1-c1cccc(-c2cccc(C)c2OCc2ccc3c(c2)CCN(C(C)CF)C3)n1 (centres unmarked) [Compound 49, 5-ethoxy-1-(6-{2-[2-(2-fluoro-1-methyl-ethyl)-1,2,3,4-tetrahydro-isoquinolin-6-ylmethoxy]-3-methyl-phenyl}-pyridin-2-yl)-1H-pyrazole-4-carboxylic acid] | 54 |
| Cc1cccc(-c2cccc(-n3ncc(C(=O)O)c3OC(C)C)n2)c1OCc1ccc2c(c1)CCN(CC1(C)COC1)C2 [Compound 40] | 62 |
| COc1c(C(=O)O)cnn1-c1cccc(-c2cccc(C)c2OCc2ccc3c(c2)CCN(C2C4CCOC4C2(C)C)C3)n1 (centres unmarked) [Compound 75] | 23 |
| COc1c(C(=O)O)cnn1-c1cccc(-c2cccc(C)c2OCc2ccc3c(c2)CCN([C@H]2CC[C@@H](OC)CC2)C3)n1 [Compound 91] | 75 |
| CCOc1c(C(=O)O)cnn1-c1cccc(-c2cccc(Cl)c2OCc2ccc3c(c2)CCN(C2CCC(F)(F)CC2)C3)n1 [Compound 57] | 24 |
| CCOc1c(C(=O)O)cnn1-c1cccc(-c2cccc(C)c2OCc2ccc3c(c2)CCN(C(C)CS(C)(=O)=O)C3)n1 (centres unmarked) [Compound 70] | 180 |
| COc1c(C(=O)O)cnn1-c1cccc(-c2cccc(C)c2OCc2ccc3c(c2)CCN(C2CC4CCC(C2)O4)C3)n1 (centres unmarked) [Compound 87] | 55 |
| CCOc1c(C(=O)O)cnn1-c1cccc(-c2cccc(C)c2OCc2ccc3c(c2)CCN(CC2(C)COC2)C3)n1 [Compound 34] | 65 |
| CCOc1c(C(=O)O)cnn1-c1cccc(-c2cccc(C)c2OCc2ccc3c(c2)CCN(CC2CC(F)(F)C2)C3)n1 [Compound 96] | 24 |
| Cc1cccc(-c2cccc(-n3ncc(C(=O)O)c3OC(C)C)n2)c1OCc1ccc2c(c1)CCN(C1CCCOC1)C2 (centres unmarked) [Compound 42] | 24 |
| COc1c(C(=O)O)cnn1-c1cccc(-c2cccc(C)c2OCc2ccc3c(c2)CCN([C@H]2CC[C@H](OC)CC2)C3)n1 [Compound 90] | 69 |
| COc1c(C(=O)O)cnn1-c1cccc(-c2cccc(C)c2OCc2ccc3c(c2)CCN(CC(C)(C)O)C3)n1 [Compound 33, 1-(6-{2-[2-(2-hydroxy-2-methyl-propyl)-1,2,3,4-tetrahydro-isoquinolin-6-ylmethoxy]-3-methyl-phenyl}-pyridin-2-yl)-5-methoxy-1H-pyrazole-4-carboxylic acid] | 97 |
| Cc1cccc(-c2cccc(-n3ncc(C(=O)O)c3OC(C)C)n2)c1OCc1ccc2c(c1)CCN(CC1CC(F)(F)C1)C2 [Compound 4, 1-(6-{2-[2-(3,3-difluoro-cyclobutylmethyl)-1,2,3,4-tetrahydro-isoquinolin-6-ylmethoxy]-3-methyl-phenyl}-pyridin-2-yl)-5-isopropoxy-1H-pyrazole-4-carboxylic acid] | 11 |
| COc1c(C(=O)O)cnn1-c1cccc(-c2cccc(C)c2OCc2ccc3c(c2)CCN(CC2COCCO2)C3)n1 (centres unmarked) [Compound 92] | 20 |
| COc1c(C(=O)O)cnn1-c1cccc(-c2cccc(C)c2OCc2ccc3c(c2)CCN(C2CCOCC2C)C3)n1 (centres unmarked) [Compound 86] | 41 |
| Cc1cccc(-c2cccc(-n3ncc(C(=O)O)c3OC(C)C)n2)c1OCc1ccc2c(c1)CCN(C1CCC(F)(F)CC1)C2 [Compound 2] | 11 |
| Cc1cccc(-c2cccc(-n3ncc(C(=O)O)c3OC(C)C)n2)c1OCc1ccc2c(c1C)CCN(CC1(C)COC1)C2 [Compound 46] | 38 |
| COc1c(C(=O)O)cnn1-c1cccc(-c2cccc(C)c2OCc2ccc3c(c2)CCN(CC2CC2(F)F)C3)n1 (centres unmarked) [Compound 72, 1-(6-{2-[2-(2,2-difluoro-cyclopropylmethyl)-1,2,3,4-tetrahydro-isoquinolin-6-ylmethoxy]-3-methyl-phenyl}-pyridin-2-yl)-5-methoxy-1H-pyrazole-4-carboxylic acid] | 17 |
| CCOc1c(C(=O)O)cnn1-c1cccc(-c2cccc(C)c2OCc2ccc3c(c2)CCN(C2CC(C)(C)OC(C)(C)C2)C3)n1 [Compound 67] | 320 |
| COc1c(C(=O)O)cnn1-c1cccc(-c2cccc(C)c2OCc2ccc3c(c2C)CCN(CC(C)(C)C)C3)n1 [Compound 30] | 10 |
